Molecular target: T1, ATG4B (Homo sapiens, UniProt Q9Y4P1)
T1 sequence (Q9Y4P1 1-393): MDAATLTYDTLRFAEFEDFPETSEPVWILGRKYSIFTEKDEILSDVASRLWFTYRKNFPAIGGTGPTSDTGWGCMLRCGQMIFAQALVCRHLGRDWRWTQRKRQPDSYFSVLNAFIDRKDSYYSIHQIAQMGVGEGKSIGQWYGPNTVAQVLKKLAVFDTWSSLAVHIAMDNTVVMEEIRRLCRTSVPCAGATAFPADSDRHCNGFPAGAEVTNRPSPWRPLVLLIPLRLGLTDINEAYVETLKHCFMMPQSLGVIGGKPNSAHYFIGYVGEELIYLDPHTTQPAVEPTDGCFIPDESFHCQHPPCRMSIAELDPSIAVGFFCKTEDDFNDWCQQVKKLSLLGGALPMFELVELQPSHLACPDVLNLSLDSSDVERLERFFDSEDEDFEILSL
Assay: SPR (Biacore 8K, immobilized purified ATG4B); also FRET activity assay and gel-based FRET-GATE16 cleavage assay
Assay type: binding

- Kd: 11.8 µM
Structure (SMILES): CN=C(N)NCCC/C=C/CCCC(C)C1OC(=O)/C(C)=C\C=C/C(C)C(O)CC(O)C(C)C(O)CCC(C)C(O)CC2(O)OC(CC(OC(=O)CC(=O)O)CC(O)CC(O)CC(O)/C(C)=C\C=C/C1C)CC(O)C2O (stereo not shown) [Am-F4a, Azalomycin F4a]

— article PMC8858318, “Targeting autophagy peptidase ATG4B with a novel natural product inhibitor Azalomycin F4a for advanced gastric cancer” (Cell Death & Disease, 2022)
